Source: patent publication US12569497B2, “Use of HCN inhibitors for treatment of cancer” (The University of Hong Kong, priority 2017, dated 2026)
Where a name gives a salt, the structure may show the parent alone.

Tests used:
[1] = cited from earlier work
[2] = tested on: liver cancer cell line MHCC-97L; test: MTT proliferation assay, MHCC-97L; type: cell-based; conditions: 200 μM, 5 days, vs double distilled water
Experimental: (§1) Ivabradine was purchased (Sigma). The powder was dissolved into double-distilled water.
(§2) MCF10A, MCF7, ZR75-1, BT474, MDA-MB-231, MDA-MB-453, Ishikawa, SW1116, PLC/PRF/5, MHCC-97L and Huh7 cells were seeded in 96-well plate with cell density 5000 cells per well. 200 μM of Ivabradine was used for cell treatment while double distilled water was used as control. […] MTT solution was prepared at 5 mg/mL in PBS and was filtered through a 0.2 μm filter. Then, 50 μl of MTT plus 200 μl of culture medium were added into each well. Cells were incubated for 4 hours at 37° C. with 5% CO2, 95% air and complete humidity. After 4 hours, the medium with MTT solution was removed and replaced with 200 μl of isopropanol with 4 mmol/L HCl and 0.1% NP-40. The 96-well plate was further incubated for 5 min at room temperature. The optical density of the wells was determined using a plate reader at a test wavelength of 570 nm and a reference wavelength of 630 nm.

[3] = tested on: MDA-MB-453 breast cancer cells; test: cell cycle flow cytometry (propidium iodide), MDA-MB-453; type: cell-based; conditions: 200 μM, 72 hours
Experimental: Cells were seeded in 10 cm dish. When the confluence of cells reached 80%, the cells were treated with 200 μM of Ivabradine or double distilled water for 72 hours. The cells were washed with 10 mL of 1×PBS. The cells were detached from the dish by treating the cells with 1 mL of Trypsin (Gibco). The cell suspension was transferred to 15 mL centrifuge tube and subjected to centrifugation at 300×g for 5 minutes at room temperature. The cell pellet was kept. The cell pellet was washed with 5 mL of 1×PBS. The cell suspension was centrifuged at 300×g for 5 minutes at room temperature. The cell pellet was resuspended in 5 mL of 4% paraformaldehyde in PBS and place on ice for 15 minutes. The cell suspension was centrifuged at 300×g for 5 minutes. The cell pellet was washed with 5 mL of 1×PBS. After the washing, the cell suspension was centrifuged at 300×g for 5 minutes at room temperature. The cell pellet was resuspended in 0.5 mL of 1×PBS. The cell suspension was added to 5 mL of ice-cold 70% ethanol for 30 minutes. APO-BrdU TUNEL Assay Kit (ThermoFisher, Cat: A23210) was used. For each cell pellet, DNA labelling solution was prepared by mixing 10 μL of reaction buffer, 0.75 μL of TdT enzyme, 8 μL of BrdUTP and 31.25 μL of double distilled water. The cell pellet was resuspended in 50 μL of the DNA-labeling solution. […] The cells were analysed by BD LSR Fortessa Analyzer. […]

[4] = tested on: cancer cell line Ishikawa; test: MTT proliferation assay, Ishikawa; type: cell-based; conditions: 200 μM, 7 days, vs double distilled water
Experimental: as §1, §2

MDA-MB-453 xenografts = test: tumor xenograft growth in nude mice, MDA-MB-453; type: in vivo, female nude mice; conditions: MDA-MB-453 xenograft, 15 mg kg^−1 day^−1 IP, 18 days
Experimental: (§3) The effects of Ivabradine suppression on triple negative breast cancer was investigated in a female nude mouse model with MDA-MB-231 and MDA-MB-453 cells. The cell lines mixed with Matrigel (BD Biosciences) at the ratio of 1:1 were inoculated into the abdominal mammary fat pad of the 5 to 6 week old female nude mice. When the tumors were palpable, the mice were randomized into two groups, each consisting of eight animals. Each group was treated with Ivabradine (15 mg/kg day-1) or water. All reagents were administered via intraperitoneal delivery. Tumor sizes were measured by caliper and tumor volume was calculated as (length*width*width)/2. This protocol has been reviewed and approved by Committee on the Use of Live Animals in Teaching and Research (CULATR), the University of Hong Kong.
(§4) Tumor growth was compared between treatment and control groups (P<0.001). After 15 days (MDA-MB-231) or 18 days (MDA-MB-453) of the treatment, tumors were isolated and recorded by photo.

[5] = tested on: MDA-MB-231 breast cancer cells; test: apoptosis by flow cytometry (APO-BrdU TUNEL), MDA-MB-231; type: cell-based; conditions: 200 μM, 72 hours
Experimental: (§5) Cells were seeded in 10 cm dish. When the confluence of cells reached 80%, the cells were treated with 200 μM of Ivabradine or double distilled water for 72 hours. The cells were washed with 10 mL of 1×PBS. The cells were detached from the dish by treating the cells with 1 mL of Trypsin (Gibco). The cell suspension was transferred to 15 mL centrifuge tube and subjected to centrifugation at 300×g for 5 minutes at room temperature. The cell pellet was kept. The cell pellet was washed with 5 mL of 1×PBS. The cell suspension was centrifuged at 300×g for 5 minutes at room temperature. The cell pellet was resuspended in 5 mL of 4% paraformaldehyde in PBS and place on ice for 15 minutes. The cell suspension was centrifuged at 300×g for 5 minutes. The cell pellet was washed with 5 mL of 1×PBS. After the washing, the cell suspension was centrifuged at 300×g for 5 minutes at room temperature. The cell pellet was resuspended in 0.5 mL of 1×PBS. The cell suspension was added to 5 mL of ice-cold 70% ethanol for 30 minutes. APO-BrdU TUNEL Assay Kit (ThermoFisher, Cat: A23210) was used. For each cell pellet, DNA labelling solution was prepared by mixing 10 μL of reaction buffer, 0.75 μL of TdT enzyme, 8 μL of BrdUTP and 31.25 μL of double distilled water. The cell pellet was resuspended in 50 μL of the DNA-labeling solution. […] The cells were analysed by BD LSR Fortessa Analyzer.

[6] = tested on: MDA-MB-231 breast cancer cells; test: cell cycle flow cytometry (propidium iodide), MDA-MB-231; type: cell-based; conditions: 200 μM, 72 hours
[7] = tested on: breast cancer cell line BT474; test: MTT proliferation assay, BT474; type: cell-based; conditions: 200 μM, 5 days, vs double distilled water
Experimental: as §1, §2

[8] = tested on: colon cancer cell line SW1116; test: MTT proliferation assay, SW1116; type: cell-based; conditions: 200 μM, 3 days, vs double distilled water
Experimental: as §1
MCF10A, MCF7, ZR75-1, BT474, MDA-MB-231, MDA-MB-453, Ishikawa, SW1116, PLC/PRF/5, MHCC-97L and Huh7 cells were seeded in 96-well plate with cell density 5000 cells per well. 200 μM of Ivabradine was used for cell treatment while double distilled water was used as control. 3-(4,5-dimethyl-2-thiazolyl)-2,5-diphenyl-2H-tetrazolium bromide (MTT) assay was performed 24, 48, 72 and 96 hours after Ivabradine treatment. MTT solution was prepared at 5 mg/mL in PBS and was filtered through a 0.2 μm filter. Then, 50 μl of MTT plus 200 μl of culture medium were added into each well. Cells were incubated for 4 hours at 37° C. with 5% CO2, 95% air and complete humidity. After 4 hours, the medium with MTT solution was removed and replaced with 200 μl of isopropanol with 4 mmol/L HCl and 0.1% NP-40. The 96-well plate was further incubated for 5 min at room temperature. The optical density of the wells was determined using a plate reader at a test wavelength of 570 nm and a reference wavelength of 630 nm.

[9] = tested on: breast cancer cell line MCF7; test: MTT proliferation assay, MCF7; type: cell-based; conditions: 200 μM, 5 days, vs double distilled water
Experimental: as §1, §2

[10] = tested on: liver cancer cells MHCC-97L; test: clonogenic assay, MHCC-97L; type: cell-based; conditions: 200 μM, 2 weeks
Experimental: (§6) For the clonogenic assay, 2000 cells were seeded in 6-well plate. 200 μM of Ivabradine was used to treat the cells while double distilled water was used as negative control. The cells were treated for 14 days. The cells were washed with 1 mL of 1×PBS and then fixed by incubating with 4% paraformaldehyde in PBS for 15 minutes at room temperature. The cells were washed with 1 mL of 1×PBS. The cell colonies were visualized by staining with 0.5% crystal violet (Sigma) solution for 1 hour at room temperature. The cells were washed with tap water. The number of cells equal or greater than 50 cells would be regarded as one colony. Number of colonies was counted. After the counting, stain was extracted by incubating with 500 μL of 10% acetic acid solution. The optical density at 650 nm was measured.

(Ishikawa) = test: clonogenic assay, Ishikawa; type: cell-based; conditions: 200 μM, 2 weeks
Experimental: as §6

[11] = tested on: liver cancer cell line Huh7; test: MTT proliferation assay, Huh7; type: cell-based; conditions: 200 μM, 5 days, vs double distilled water
Experimental: as §1, §2

MDA-MB-231 xenografts = test: tumor xenograft growth in nude mice, MDA-MB-231; type: in vivo, female nude mice; conditions: MDA-MB-231 xenograft, 15 mg kg^−1 day^−1 IP, 15 days
Experimental: as §3, §4

[12] = tested on: TNBC cell line MDA-MB-231; test: MTT proliferation assay, MDA-MB-231; type: cell-based; conditions: 200 μM, 5 days, vs double distilled water
Experimental: as §1, §2

[13] = tested on: liver cancer cell line PLC/PRF/5; test: MTT proliferation assay, PLC/PRF/5; type: cell-based; conditions: 200 μM, 5 days, vs double distilled water
Experimental: as §1, §2

[14] = tested on: breast cancer cells (MCF7, MDA-MB-231, MDA-MB-453, and BT-474); test: clonogenic assay, breast cancer cells; type: cell-based; conditions: 200 μM, 2 weeks
Experimental: as §6

[15] = tested on: TNBC cell line MDA-MB-453; test: MTT proliferation assay, MDA-MB-453; type: cell-based; conditions: 200 μM, 5 days, vs double distilled water
Experimental: as §1, §2

[16] = tested on: BT-474 breast cancer cells; test: cell cycle flow cytometry (propidium iodide), BT-474; type: cell-based; conditions: 200 μM, 24 hours
[17] = tested on: MDA-MB-453 breast cancer cells; test: apoptosis by flow cytometry (APO-BrdU TUNEL), MDA-MB-453; type: cell-based; conditions: 200 μM, 72 hours
Experimental: as §5

[18] = tested on: BT-474 breast cancer cells; test: apoptosis by flow cytometry (APO-BrdU TUNEL), BT-474; type: cell-based; conditions: 200 μM, 24 hours
Experimental: Cells were seeded in 10 cm dish. […] The cells were washed with 10 mL of 1×PBS. The cells were detached from the dish by treating the cells with 1 mL of Trypsin (Gibco). The cell suspension was transferred to 15 mL centrifuge tube and subjected to centrifugation at 300×g for 5 minutes at room temperature. The cell pellet was kept. The cell pellet was washed with 5 mL of 1×PBS. The cell suspension was centrifuged at 300×g for 5 minutes at room temperature. The cell pellet was resuspended in 5 mL of 4% paraformaldehyde in PBS and place on ice for 15 minutes. The cell suspension was centrifuged at 300×g for 5 minutes. The cell pellet was washed with 5 mL of 1×PBS. After the washing, the cell suspension was centrifuged at 300×g for 5 minutes at room temperature. The cell pellet was resuspended in 0.5 mL of 1×PBS. The cell suspension was added to 5 mL of ice-cold 70% ethanol for 30 minutes. APO-BrdU TUNEL Assay Kit (ThermoFisher, Cat: A23210) was used. For each cell pellet, DNA labelling solution was prepared by mixing 10 μL of reaction buffer, 0.75 μL of TdT enzyme, 8 μL of BrdUTP and 31.25 μL of double distilled water. The cell pellet was resuspended in 50 μL of the DNA-labeling solution. The cell suspension was incubated at 37° C. for 1 hour. […] The cells were analysed by BD LSR Fortessa Analyzer.

[19] = tested on: colon cancer cells (SW1116); test: clonogenic assay, SW1116; type: cell-based; conditions: 200 μM, 2 weeks
Experimental: as §6

[20] = tested on: liver cancer cells PLC/PRF/5; test: clonogenic assay, PLC/PRF/5; type: cell-based; conditions: 200 μM, 2 weeks
Experimental: as §6

COc1cc2c(cc1OC)CC(=O)N(CCCN(C)C[C@H]1Cc3cc(OC)c(OC)cc31)CC2 [Ivabradine hydrochloride salt]
solubility in water [1]: over 5 mg/ml

COc1cc2c(cc1OC)CC(=O)N(CCCN(C)C[C@H]1Cc3cc(OC)c(OC)cc31)CC2 [Ivabradine, 1.7,8-dimethoxy-3-(3-(((4,5-dimethoxybenzocyclobutan-1-yl)methyl)methylamino)propyl)-1,3,4,5-tetrahydro-2H-benzazepin-2-one]
proliferation (MTT) [2]: significantly reduced the proliferation
cell cycle arrest [3]: induced sub-G1 cell cycle arrest
proliferation (MTT) [4]: significantly reduced the proliferation
tumor growth (MDA-MB-453 xenografts): significantly suppress tumor growth
apoptosis [5]: significantly induces apoptosis
cell cycle arrest [6]: induced sub-G1 cell cycle arrest
proliferation (MTT) [7]: significantly reduced the proliferation
proliferation (MTT) [8]: significantly reduced the proliferation
proliferation (MTT) [9]: significantly reduced the proliferation
colony formation and proliferation (clonogenic assay) [10]: suppression of liver cancer colony formation and proliferation
colony formation and proliferation (clonogenic assay) ((Ishikawa)): suppression of ovarian cancer colony formation and proliferation
proliferation (MTT) [11]: significantly reduced the proliferation
tumor growth (MDA-MB-231 xenografts): significantly suppress tumor growth
proliferation (MTT) [12]: significantly reduced the proliferation
proliferation (MTT) [13]: significantly reduced the proliferation
colony formation and proliferation (clonogenic assay) [14]: suppression of breast cancer colony formation and proliferation
proliferation (MTT) [15]: significantly reduced the proliferation
cell cycle arrest [16]: induced sub-G1 cell cycle arrest
apoptosis [17]: significantly induces apoptosis
apoptosis [18]: significantly induces apoptosis
colony formation and proliferation (clonogenic assay) [19]: suppression of colon cancer colony formation and proliferation
solubility in water [1]: about 0.02 mg/ml
colony formation and proliferation (clonogenic assay) [20]: suppression of liver cancer colony formation and proliferation
